“Also recorded” adds a separate entry of the source.
Columns and labels:
Type in all cases: cell-based, porcine
RPE cells [1] = assay: Alkalinisation and measurement of lysosomal pH (pHL) of RPE cells treated with tamoxifen
cathepsin D = assay: Cathepsin D activity measurement in RPE cells treated with concanamycin; conditions: FIG. 2
Description: (§1) Pigs' eyes are delivered to Institut de la Vision in a cold medium from a local slaughterhouse. The eyes are dissected so as to remove the anterior segment of the eye, the vitreous body and the neural retina. The eyeballs are then washed twice with PBS, filled with trypsin (0.25% in PBS) and incubated at 37° C. for 1 hr15. The RPE cells are then retrieved by repeated pipetting, centrifuged to remove the trypsin, and resuspended in DMEM culture medium supplemented with 20% foetal calf serum (DMEM20% FCS). The cells of each eye are then inoculated in a 6 cm diameter Petri dish, cultured in an atmosphere containing 5% CO2 at 37° C., and the culture medium is replaced after 24 hours and 4 days in vitro. After one week, the cells reach confluency and can then be passaged.
After one week in culture, the cells are treated with trypsin and transferred into 3.5 cm diameter Petri dishes at a cell density of 1.5×10^5 cells/cm^2 in DMEM2% FCS. After 24 hours, the cells are treated with 20 nM of concanamycin so as to inhibit the activity of cathepsin D, as well as with a beta-adrenergic agonist. After 24 hours of treatment, the cells are washed with PBS and then transferred into an extraction buffer on ice. The cell extract is centrifuged at 2000 rpm at 4° C. for 10 minutes and the supernatant corresponding to the cytosolic part is frozen at −80° C. until the measurement of the enzyme activity. The activity of cathepsin D is measured using the Anson method (J Gen Physiol. 1938, 22(1):79-89) that we adapted to our experimental schedule. In brief, the cytosolic extract is incubated for 10 minutes at 37° C. in a haemoglobin solution (2.5% in 400 mM of citrate buffer at pH 2.8). The reaction is stopped by adding 5% trichloroacetic acid and the mixture is centrifuged. The optical density of the supernatant containing the breakdown products of haemoglobin is measured at 280 nm. The absorbance is corrected by subtracting that of the control, prepared as above but by adding haemoglobin after stopping the enzymatic reaction. One unit of cathepsin D is then defined as being the quantity of enzyme required to induce a change of absorbance of 1 to 280 nm for 60 minutes of incubation using the experimental conditions described hereinabove. The protein concentration of the cell lysates is measured according to the Bradford method so as to normalise the results.
Cathepsin D is the lysosomal proteolytic enzyme mainly present in the retinal pigment epithelium involved in photoreceptor outer segment digestion. The activity thereof is dependent on the protonation of the amino acid aspartic acid of the active site thereof and on the conformation thereof, which both require an acidic environment. […]

RPE cells [2] = assay: In vitro model of lipofuscin accumulation in RPE (oxidised photoreceptor outer segments); conditions: FIG. 3
Description: as §1, with “The cells of each eye are then inoculated in a 6 cm diameter Petri dish, cultured in an atmosphere containing 5% CO2 at 37° C., and the culture medium is replaced after 24 hours and 4 days in vitro. After one week, the cells reach confluency and can then be passaged.” left out
In order to induce an accumulation of lipofuscin type material in the RPE cells, the latter are treated 3 times per week with 5×10^6 POS-ox in DMEM20% FCS containing 2.5% of sucrose for two weeks. […] The autofluorescence induced by the accumulation of lipofuscin is measured using a plate reader (excitation at 480 nm and emission between 500 and 700 nm corresponding to the emission spectrum of lipofuscin).
In order to verify whether the different beta-adrenergic agonists are capable of also acting upon lipofuscin accumulation, we also tested them in a cell model wherein this accumulation is induced by treating RPE cells with oxidised OS by UV exposure every two days. […] The lipofuscin accumulation was measured after two weeks of co-treatment by measuring the autofluorescence of the cells.

[3] = RPE cells with 20 nM concanamycin, 24 hours of treatment

How did the “concentration from which effective on re-acidification of the lysosomal pH” value (RPE cells [1]; cells treated with 15 μM tamoxifen, FIG. 1) turn out when `C[C@H](Cc1ccc2c(c1)OC(C(=O)[O-])(C(=O)[O-])O2)NC[C@H](O)c1cccc(Cl)c1.[Na+].[Na+]` [CL-316,243] was run?
The value was 20 nM.

With `C/C=C/[C@H]1O[C@@](O)([C@@H](C)[C@H](O)[C@H](C)[C@H]2OC(=O)/C(OC)=C/C(C)=C/[C@@H](C)[C@@H](O)[C@@H](CC)[C@@H](O)[C@H](C)C/C(C)=C/C=C/[C@@H]2OC)C[C@@H](O)[C@@H]1C` [concanamycin] as the compound, how does the “cathepsin D activity” value (cathepsin D; [3]) read?
The value was 0.013 unit/ml of enzyme/min/μg of proteins.

Which “effect on lysosomal pH (in words)” value (RPE cells [1]; 1 pM, FIG. 1) does the source give for `Nc1nc(CC(=O)Nc2ccc(CCNC[C@H](O)c3ccccc3)cc2)cs1` [mirabegron, (R)-2-(2-aminothiazol-4-yl)-4′-[2-[(2-hydroxy-2-phenylethyl)amino]ethyl]acetic acid anilide] here?
The value was “lowers the lysosomal pH”.

And the “restoration of cathepsin D activity (in words)” value (cathepsin D; RPE cells treated with concanamycin)?
Its value is “significantly restores the activity of cathepsin D”.

What about the “cathepsin D activity” value (cathepsin D; [3]) of the same compound?
The value was 0.040 unit/ml of enzyme/min/μg of proteins.

What about the “multiplication of cathepsin D activity compared to negative control (concanamycin)” value (cathepsin D; [3]) of the same compound?
Its value is 3 fold.

What about the “effect on lipofuscin accumulation / photoreceptor outer segment digestion (in words)” value (RPE cells [2]; RPE cells, two weeks of treatment) of the same compound?
The value was “significantly reduce the accumulation of lipofuscin; also recorded: reduces the accumulation of lipofuscin”.

What about the “reduction of the accumulation of lipofuscin by RPE cells (autofluorescence)” value (RPE cells [2]; agonist at 10 μM, two weeks of co-treatment with oxidised outer segments, versus DMSO control) of the same compound?
The value was roughly 20%.

For `CC/C(=C(\c1ccccc1)c1ccc(OCCN(C)C)cc1)c1ccccc1` [tamoxifen], which “increase in the lysosomal pH” value (RPE cells [1]; 15 μM tamoxifen, in 20 minutes) is on record?
Its value is roughly 1 pH unit.

— patent US20180353482A1, “MIRABEGRON FOR THE TREATMENT OF RETINAL DISEASES” (SORBONNE UNIVERSITE, priority 2015, published 2018)
